The record followed here is patent publication US20230131334A1, “COMPANION DIAGNOSTIC BIOMARKERS OF EGFR INHIBITOR” (SYNTEKABIO, INC., priority 2020, published 2023).

The subject of the assay is A549 cell line. In words: WST-1 assay of drug responsiveness to pelitinib in A549 with LEPRE1 overexpression or inhibited expression. The class given is cell-based. Conditions: Homo sapiens. Here is the method: The expression level of LEPRE1 was identified by Western blot, and a test (WST-1 assay) of drug responsiveness to pelitinib was carried out. […] It was confirmed that LEPRE1 overexpression had the effect of increasing drug sensitivity to pelitinib. […] It was confirmed that the inhibited LEPRE1 expression had the effect of reducing drug sensitivity to pelitinib.
The loss-of-function effect whereby drug sensitivity to pelitinib decreases was confirmed when LEPRE1 expression was inhibited.

In the case of `CCOc1cc2ncc(C#N)c(Nc3ccc(F)c(Cl)c3)c2cc1NC(=O)/C=C/CN(C)C` [pelitinib, Pelitinib], the IC50 is, setting by setting: (A549, A549 overexpressing LEPRE1/pcDNA3.1, then treated with pelitinib) 1.03 ± 0.0406 µM; (A549, A549 overexpressing pcDNA3.1 (empty vector), then treated with pelitinib) 1.67 ± 0.52 µM; (A549, A549 transfected with LEPRE1 siRNA (si2293), then treated with pelitinib) 4.01 ± 1.01 µM; (A549, A549 transfected with negative control, then treated with pelitinib) 1.73 ± 0.187 µM.
